In data set [1] the test system is rat ventral mesencephalan dopaminergic neurons. Nature of the data set: [3H]Dopamine cell culture assay (6-OHDA neurotoxicity). The class given is cell-based. Conditions: 6-OHDA 30 μM, uptake 22 hours after exposure. How it is done:
Cultures of dopaminergic neurons were prepared according to a modification of the procedure described by Raymon and Leslie (J. Neurochem. 62:1015-1024, 1994). Time-mated pregnant rats were sacrificed on embyronic day 14-15 (crown rump length 11-12 mm) and the embryos removed by cesarean section. The ventral mesencephalon, containing the dopaminergic neurons, was dissected from each embryo. Tissue pieces from approximately 48 embryos were pooled and dissociated both enzymatically and mechanically. An aliquot from the resulting cell suspension was counted and the cells were plated in high glucose DMEM/F12 culture medium with 10% fetal bovine serum at a density of 1×10^5 cells/well of a Biocoat poly-D-lysine-coated 96-well plate. The day following plating was considered 1 day in vitro (DIV). Cells were maintained in a stable environment at 37° C., 95% humidity, and 5% CO2. A partial medium change was performed at 3 DIV. […]
[^3H]Dopamine uptake is used as a measure of the health and integrity of dopaminergic neurons in culture (Prochiantz et al., PNAS 76: 5387-5391, 1979). […] Briefly, cells treated with 6-OHDA in the presence and absence of 5-amino-anthra(9,1-cd)isothiazol-6-one were assessed in the uptake assay 22 hrs after exposure to 6-OHDA. […] Radioactivity was removed and the cultures were washed 3× with ice cold PBS. […]

A further data set deals with T1, MEK6 (Homo sapiens, UniProt P52564).
T1 sequence (P52564 1-334): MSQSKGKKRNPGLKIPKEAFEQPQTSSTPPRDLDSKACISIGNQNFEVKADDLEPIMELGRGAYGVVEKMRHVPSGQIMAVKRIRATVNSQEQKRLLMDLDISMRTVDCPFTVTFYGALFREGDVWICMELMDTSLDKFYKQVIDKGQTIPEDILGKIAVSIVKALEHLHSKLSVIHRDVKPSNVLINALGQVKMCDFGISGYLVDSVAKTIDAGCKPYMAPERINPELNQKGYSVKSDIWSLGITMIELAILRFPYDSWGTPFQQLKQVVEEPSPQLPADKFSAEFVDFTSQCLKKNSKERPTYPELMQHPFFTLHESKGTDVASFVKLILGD
Nature of the data set: Selectivity for JNK: protein kinase panel, MEK6. The class given is biochemical. How it is done: (§1) 5-Amino-anthra(9,1-cd)isothiazol-6-one was also assayed for its inhibitory activity against several protein kinases, listed below, using techniques known to those skilled in art (See, e.g., Protein Phosphorylation, Sefton & Hunter, Eds., Academic Press, pp. 97-367, 1998).

The next data set addresses p38-2 (Homo sapiens, UniProt Q15759). Nature of the data set: Selectivity for JNK: protein kinase panel, p38-2. The class given is biochemical. As for the experimental part: as §1
A short description of data set [2]: Solubility in aqueous media (remark). The class given is physicochemical.
For data set [3], the system named is IL-2 production in Jurkat T cells (clone E6-1). Nature of the data set: Jurkat T-cell IL-2 production assay. The class given is cell-based. The note with it: Homo sapiens, 10 h, read-out: IC50, IL-2 production reduced to 50% of control. As for the experimental part:
Jurkat T cells (clone E6-1) were purchased from the American Type Culture Collection of Manassas, Va. and maintained in growth media consisting of RPMI 1640 medium containing 2 mM L-glutamine (commercially available from Mediatech Inc. of Hemdon, Va.), with 10% fetal bovine serum (commercially available from Hyclone Laboratories Inc. of Omaha, Nebr.) and penicillin/streptomycin. All cells were cultured at 37° C. in 95% air and 5% CO2. Cells were plated at a density of 0.2×10^6 cells per well in 200 μL of media. Compound stock (20 mM) was diluted in growth media and added to each well as a 10× concentrated solution in a volume of 25 μL, mixed, and allowed to pre-incubate with cells for 30 minutes. The compound vehicle (dimethylsulfoxide) was maintained at a final concentration of 0.5% in all samples. After 30 minutes the cells were activated with PMA (phorbol myristate acetate, final concentration 50 ng/mL) and PHA (phytohemagglutinin, final concentration 2 μg/mL). PMA and PHA were added as a 10× concentrated solution made up in growth media and added in a volume of 25 μL per well. Cell plates were cultured for 10 hours. Cells were pelleted by centrifugation and the media removed and stored at −20° C. Media aliquots are analyzed by sandwich ELISA for the presence of IL-2 as per the manufacturers instructions (Endogen Inc. of Woburn, Mass.). […]

Chain of p38-2 (Q15759 whole entry, species assumed): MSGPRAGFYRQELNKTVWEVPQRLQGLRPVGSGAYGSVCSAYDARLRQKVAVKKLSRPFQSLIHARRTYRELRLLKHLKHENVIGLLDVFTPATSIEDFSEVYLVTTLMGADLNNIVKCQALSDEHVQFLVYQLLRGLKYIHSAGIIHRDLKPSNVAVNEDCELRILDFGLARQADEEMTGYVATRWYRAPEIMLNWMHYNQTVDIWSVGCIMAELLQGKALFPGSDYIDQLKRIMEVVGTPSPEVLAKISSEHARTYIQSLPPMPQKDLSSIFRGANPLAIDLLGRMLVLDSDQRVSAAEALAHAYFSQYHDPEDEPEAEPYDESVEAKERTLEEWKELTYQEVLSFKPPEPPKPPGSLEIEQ

As a reminder, the IC50 is the point on the concentration scale where inhibition reaches its midpoint. In the case of `Nc1ccc2snc3c2c1C(=O)c1ccccc1-3` [5-amino-anthra(9,1-cd)isothiazol-6-one], in data set [1], the “Protection of dopaminergic neurons from 6-OHDA ([3H]dopamine uptake)” value is listed as “protects rat ventral mesencephalan neurons from the toxic effects of 6-OHDA”. Moreover, the IC50 against MEK6 was more than 30 µM; against p38-2, more than 30 µM; in data set [3], 30 µM. The “Solubility in aqueous media” value in data set [2] is “limited solubility”.

These data come from patent US20040034084A1, “Methods for using JNK inhibitors for treating or preventing disease-related wasting” (Celgene Corporation, priority 2002, published 2004).
